Reference: paper PMC6383986, “Fragment-Based Covalent Ligand Screening Enables Rapid Discovery of Inhibitors for the RBR E3 Ubiquitin Ligase HOIP” (Journal of the American Chemical Society, 2019)

What was measured:
Test in all cases: ABPP quantitative MS, HEK293T
Format in all cases: cell-based
Settings in all cases: 30 μM (11a) 7 h vs DMSO, then 3 μM (15) 2 h
ALDH6A1 = target: T1, ALDH6A1 (Homo sapiens, UniProt Q02252)
T1 construct: endogenous in cells; host or cells: HEK293T (A21); MCF7 (A27)
T1 sequence (Q02252 34-535): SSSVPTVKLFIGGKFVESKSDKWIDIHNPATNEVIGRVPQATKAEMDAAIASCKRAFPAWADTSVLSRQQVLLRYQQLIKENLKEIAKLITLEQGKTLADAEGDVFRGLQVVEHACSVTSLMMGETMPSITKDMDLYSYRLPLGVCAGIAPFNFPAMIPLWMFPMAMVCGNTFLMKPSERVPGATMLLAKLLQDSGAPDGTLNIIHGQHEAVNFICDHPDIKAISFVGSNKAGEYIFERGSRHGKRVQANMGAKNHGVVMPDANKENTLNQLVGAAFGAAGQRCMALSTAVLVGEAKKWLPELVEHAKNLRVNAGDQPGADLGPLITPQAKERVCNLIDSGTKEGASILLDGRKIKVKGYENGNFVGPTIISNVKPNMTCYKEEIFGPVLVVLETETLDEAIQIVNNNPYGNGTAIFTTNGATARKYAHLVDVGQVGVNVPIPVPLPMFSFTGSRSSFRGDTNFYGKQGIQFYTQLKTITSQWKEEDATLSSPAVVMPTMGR
Protocol: (§1) control and cells treated with control compounds (11i) and (17) at 30 µM). HOIP RBR wild type […]
(§2) nm, indicating low to no labelling by (11a), and a dominant signal from the 800 channel (green).
(§3) C = HOIP RBR control (0.5 µg).
(§4) 5.2 Activity-based protein profiling – Enrichment and LC-MS
(§5) Cell culture and transfection, compound treatment, ha rvest and lysis
(§6) HEK293T cells were cultured and transfected as describ ed in section 4.8 above. MCF7 cells were seeded in 100 mm Petri dishes at 6 × 10^5 cells/dish and cultured overnight at 37 °C as described in section 4.8 above. Both cell types were treated with inhibitor (11a) (30 µM final concentration) or DMSO as described above, incubating for 7 h at 37 °C, followed by addition of clickable probe (15) (3 µM final concentration) and incubation for an additional 2 h. The cells were then harvested and lysed (50 mM Tris-HCl, pH 7.5, 1.5 mM MgCl2, 150 mM NaCl, 5% glycerol, 0.8% v/v IGEPAL-CA630, 25 mM NaF, 1 mM Na3VO4, complete protease inhibitor), and the protein concentration was determined by the BCA assay as described in section 4.7 above.
(§7) Enrichment of TCO-labelled proteins
(§8) Similar to a previously described protocol,22 tetrazine beads were generated by incubating high capacity neutravidin beads (500 µL; Thermo Scientific) with 0.1 µmol tetrazine-PEG4-biotin (Jena Bioscience) in PBS buffer over night at 4 °C, followed by blocking with 5 µL 100 mM biotin in DMSO for 30 minutes at 4 °C. The beads were washed 3× with buffer (50 mM Tris-HCl pH 7.4, 5% glycerol, 1.5 mM MgCl2, 150 mM NaCl, 1 mM Na3VO3, 5 mM NaF) supplemented with 0.4% IGEPAL CA-630 and adjusted to a 5% v/v slurry.
(§9) Lysate with a protein concentration of approx. 2 mg/mL (500 µL) were added to the TCO beads (35 µL) on a 96-well filter plate (Porvair, Dunn #240002) and incubated at 4°C for 2 h. After incubation, beads were washed using a vacuum manifold with 5 mL wash buffer 1 (WB1) (50 mM […]
(§10) (50 mM HEPES pH 8.5, 2 M urea), and 5 mL WB4 (50 mM HEPES pH 8.5). Proteins were then eluted by on bead digestion: 60 µL elution buffer (50 mM HEPES pH 8.5, 5 mM Tris-(2-carboxyethyl)phosphine, 15 mM chloroacetamide, 0.004 µg LysC/ µL (Wako chemicals), 0.004 µg trypsin/µL (Promega)) were added to the washed beads and incubated over night at room temperature. Eluates were collected by centrifugation, beads incubated with an additional 60 µL WB4, eluted and both eluates were combined and lyophilized. […]
(§11) proportional to the number of ions; this measure is referred to as ion area.24 Spectra matching to peptides were filtered according to the following criteria: mascot ion score >15, signal-to-background of the precursor ion >4, and signal -to-interference >0.5. Fold-changes were corrected for isotope purity and adjusted for interference caused by co-eluting nearly isobaric peaks.25 Protein quantification was derived from individual spectra matching to distinct peptides by using a sum-based bootstrap algorithm; 95% confidence intervals were calculated for all protein fold-changes that were quantified with more than three spectra.23 Relative protein abundance s were generated on the basis of MS1 abundances .26 Briefly, XIC peaks were matched to identified peptides. […] These values were then summed, and the mean was calculated.
(§12) In cases where fewer than 3 sequences were associated, the mean was calculated using XIC intensities from either one or two sequences.
(§13) Proteins were filtered for >1 quantified spectra matches (qusm). Residual binding was calculated […]

[1] = target: T2, RNF31 (E3 ubiquitin-protein ligase RNF31) (Homo sapiens, UniProt Q96EP0)
T2 construct: expressed in transfected cells; host or cells: HEK293T, transient, modified pcDNA3.1(+)
T2 sequence (Q96EP0 697-1072): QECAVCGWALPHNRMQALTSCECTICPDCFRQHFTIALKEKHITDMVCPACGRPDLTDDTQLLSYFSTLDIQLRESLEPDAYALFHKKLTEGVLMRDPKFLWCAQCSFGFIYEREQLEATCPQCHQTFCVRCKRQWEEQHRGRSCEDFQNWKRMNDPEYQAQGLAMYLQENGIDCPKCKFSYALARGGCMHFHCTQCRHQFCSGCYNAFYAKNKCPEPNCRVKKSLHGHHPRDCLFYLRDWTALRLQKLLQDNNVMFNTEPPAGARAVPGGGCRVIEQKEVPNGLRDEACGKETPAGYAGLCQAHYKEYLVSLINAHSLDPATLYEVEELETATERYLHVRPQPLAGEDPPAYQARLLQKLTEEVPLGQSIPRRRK
Protocol: as §1, §2, §3, §4, §5, §6, §7, §8, §9, §10, §11, §12, §13

[2] = target: T3, IRAK4 (Interleukin-1 receptor-associated kinase 4) (Homo sapiens, UniProt Q9NWZ3)
T3 construct: endogenous in cells; host or cells: HEK293T (transfected with 3×FLAG HOIP RBR only)
T3 sequence (Q9NWZ3 whole entry): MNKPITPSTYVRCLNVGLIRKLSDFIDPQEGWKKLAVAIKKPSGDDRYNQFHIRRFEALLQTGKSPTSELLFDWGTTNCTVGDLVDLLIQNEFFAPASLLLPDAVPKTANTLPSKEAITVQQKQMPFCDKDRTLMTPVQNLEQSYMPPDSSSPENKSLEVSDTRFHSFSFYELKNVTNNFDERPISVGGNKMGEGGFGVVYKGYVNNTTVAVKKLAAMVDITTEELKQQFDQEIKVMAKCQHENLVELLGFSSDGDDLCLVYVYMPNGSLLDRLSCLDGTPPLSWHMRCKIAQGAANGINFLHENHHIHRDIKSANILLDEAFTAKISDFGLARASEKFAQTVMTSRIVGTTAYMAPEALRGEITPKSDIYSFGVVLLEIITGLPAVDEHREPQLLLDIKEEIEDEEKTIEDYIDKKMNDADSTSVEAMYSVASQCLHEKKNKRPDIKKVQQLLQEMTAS
Protocol: as §1, §2, §3, §4, §5, §6, §7, §8, §9, §10, §11, §12, §13

NUDT8 = target: T4, NUDT8 (Homo sapiens, UniProt Q8WV74)
T4 construct: endogenous in cells; host or cells: HEK293T
T4 sequence (Q8WV74 whole entry): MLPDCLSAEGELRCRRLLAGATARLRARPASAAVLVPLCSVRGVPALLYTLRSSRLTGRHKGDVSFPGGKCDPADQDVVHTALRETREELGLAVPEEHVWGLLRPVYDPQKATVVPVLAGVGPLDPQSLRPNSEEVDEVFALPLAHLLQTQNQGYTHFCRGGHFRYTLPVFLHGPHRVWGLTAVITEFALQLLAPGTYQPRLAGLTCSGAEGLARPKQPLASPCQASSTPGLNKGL
Protocol: as §1, §2, §3, §4, §5, §6, §7, §8, §9, §10, §11, §12, §13

TRMT61A = target: T5, TRMT61A (Homo sapiens, UniProt Q96FX7)
T5 construct: endogenous in cells; host or cells: HEK293T
T5 sequence (Q96FX7 whole entry): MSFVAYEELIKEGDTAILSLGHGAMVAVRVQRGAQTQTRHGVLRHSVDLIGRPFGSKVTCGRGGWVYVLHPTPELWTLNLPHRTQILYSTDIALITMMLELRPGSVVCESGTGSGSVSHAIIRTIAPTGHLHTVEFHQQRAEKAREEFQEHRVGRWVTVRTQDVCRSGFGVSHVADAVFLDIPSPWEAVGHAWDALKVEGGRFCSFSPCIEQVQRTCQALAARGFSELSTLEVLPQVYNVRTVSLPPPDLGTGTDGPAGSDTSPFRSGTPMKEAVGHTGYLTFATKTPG
Protocol: as §1, §2, §3, §4, §5, §6, §7, §8, §9, §10, §11, §12, §13

ratio: mean ratio between control and competition samples, ALDH6A1 (ALDH6A1): -1.278 log2 | ratio: mean ratio between control and competition samples, RNF31 [1]: -2.293 log2 | ratio: mean ratio between control and competition samples, IRAK4 [2]: -1.675 log2 | ratio: mean ratio between control and competition samples, NUDT8 (NUDT8): -1.172 log2 | ratio: mean ratio between control and competition samples, TRMT61A (TRMT61A): -1.293 log2
Compound: COC(=O)/C=C/CNC(=O)c1cc2c([nH]c1=O)CCCC2 [Compound 11a]
